From ChEMBL document CHEMBL1131896, “Probing the radical mechanism of galactose oxidase using an ultrafast radical probe” (Bioorg Med Chem Lett, 1999) come the findings set out here.

pKi: −log10 of the molar value.

Test [1] relates to Galactose oxidase (Fusarium austroamericanum). As to the kind of experiment: Inactivation rate constant against Galactose oxidase (GOase).
In test [2] the target is Galactose oxidase (Fusarium austroamericanum). The test can be described thus: Binding constant against Galactose oxidase (GOase).

For `OC[C@H]1C[C@@H]1c1ccccc1` (relative stereo), in test [1] (tested as the 2H-labelled form), the K inact came to 0.00082 s⁻¹. The term pKi denotes the Ki on a negative log10 scale, so that one unit is a factor of ten. Low values mean a large Ki, high ones a small Ki. `[2H]C([2H])(O)[C@H]1C[C@@H]1c1ccccc1` (relative stereo) showed a negative logarithm of the Ki (pKi) in test [2] of 2.29. Same read-out and setting: the same measure for `OC[C@H]1C[C@@H]1c1ccccc1` [listing 1 of 2 here]: 2.25. In turn, `OC[C@H]1C[C@@H]1c1ccccc1` [listing 2 of 2 here] registered a K inact in test [1] of 0.0026 s⁻¹.
